Test results published in patent US5081152A, “Azulene derivatives as thromboxane A2 and prostaglandin endoperoxide receptor antagonist” (Kotobuki Seiyaku Co., Ltd., priority 1989, dated 1992).
Where a name gives a salt, the structure may show the parent alone.

biological target: T1, Thromboxane A2 receptor (Rattus norvegicus, UniProt P34978); test: Thromboxane A2 receptor antagonistic action (inhibitory action of U-46619-induced contractions of rat aortic strips); format: cell-based; conditions: isolated helical strips of rat aorta precontracted with 3×10^-8 M U-46619; read-out: IC50 (the concentrations which inhibited the contraction by 50%)
T1 sequence (P34978 1-341): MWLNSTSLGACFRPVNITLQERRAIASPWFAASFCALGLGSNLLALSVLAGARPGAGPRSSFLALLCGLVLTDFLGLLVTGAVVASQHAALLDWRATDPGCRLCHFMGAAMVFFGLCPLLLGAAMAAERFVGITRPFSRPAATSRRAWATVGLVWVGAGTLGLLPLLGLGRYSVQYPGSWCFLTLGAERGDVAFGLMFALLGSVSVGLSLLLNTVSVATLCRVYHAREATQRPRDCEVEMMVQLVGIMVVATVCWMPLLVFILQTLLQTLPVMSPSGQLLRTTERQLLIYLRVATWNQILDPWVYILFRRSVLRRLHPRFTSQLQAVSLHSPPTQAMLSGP

First: O=C(O)c1cc(CCNS(=O)(=O)c2ccccc2)c2cccccc1-2 [Compound 1, 3-[2-(Benzenesulfonylamino)ethyl]-azulene-1-carboxylic acid]
Second: O=C(O)c1cc(CCCCNS(=O)(=O)c2ccccc2)c2cccccc1-2 [Compound 3, 3-[4-(Benzenesulfonylamino)butyl]-azulene-1-carboxylic acid]
The IC50 of the first is 37-fold higher: 21000 nM for the first, 570 nM for the second.

Compared with `O=C(O)c1cc(CCCCCCNS(=O)(=O)c2ccccc2)c2cccccc1-2` [Compound 5, 3-[6-(Benzenesulfonylamino)hexyl]-azulene-1-carboxylic acid], `O=C(O)c1cc(CCCCCCCCNS(=O)(=O)c2ccccc2)c2cccccc1-2` [Compound 7, 3-[8-(Benzenesulfonylamino)octyl]-azulene-1-carbaxylic acid] is 110-fold higher in IC50: 140 nM for the first, 15000 nM for the second.

First: CC(C)c1cccc2c(CCCCNS(=O)(=O)c3ccccc3)cc(C(=O)O)c-2c1 [Compound 10, 7-Isopropyl-3-[4-(benzenesulfonylamino)butyl]-azulene-1-carboxylic acid]
Second: CC(C)c1cccc2c(CCCCCCNS(=O)(=O)c3ccccc3)cc(C(=O)O)c-2c1 [Compound 12, 7-Isopropyl-3-[6-(benzenesulfonylamino)hexyl]-azulene-1-carboxylic acid]
The IC50 of the first is 3.4-fold higher: 3100 nM for the first, 920 nM for the second.

Compared with `CC(C)c1cccc2c(CCNS(=O)(=O)c3ccccc3)cc(C=CC(=O)O)c-2c1` [Compound 14, 3-[7-Isopropyl-3-(2-(benzenesulfonylamino)ethyl)-azulene-1-yl]-2-propenoicacid], `CC(C)c1ccc2c(C=CC(=O)O)cc(CCCCNS(=O)(=O)c3ccccc3)c-2cc1` [Compound 36, 3-[6-Isopropyl-3-[4-(benzenesulfonylamino)butyl]-azulene-1-yl]-2-propenoicacid] is 8.8-fold lower in IC50: 21000 nM for the first, 2400 nM for the second.

Going from `CC(C)c1ccc2c(CCNS(=O)(=O)c3ccccc3)cc(C(=O)O)c-2cc1` [Compound 15, 6-Isopropyl-3-[2-(benzenesulfonylamino)ethyl]-azulene-1-carboxylic acid] to `CC(C)c1ccc2c(CCCCNS(=O)(=O)c3ccccc3)cc(C(=O)O)c-2cc1` [Compound 17, 6-Isopropyl-3-[4-(benzenesulfonylamino)butyl]-azulene-1-carboxylic acid], the IC50 falls from 60000 nM to 78 nM (770-fold). The second is the more potent here.

Going from `CC(C)c1ccc2c(CCCCCCNS(=O)(=O)c3ccccc3)cc(C(=O)O)c-2cc1` [Compound 19, 6-Isopropyl-3-[6-(benzenesulfonylamino)hexyl]-azulene-1-carboxylic acid] to `CC(C)c1ccc2c(CCCCNS(=O)(=O)c3ccccc3)cc(CC(=O)O)c-2cc1` [Compound 33, 2-[6-Isopropyl-3-[4-(benzenesulfonylamino)butyl]-azulene-1-yl]-acetic acid], the IC50 rises from 70 nM to 300 nM (4.3-fold).

Compared with `Cc1ccc(S(=O)(=O)NCCCCc2cc(C(=O)O)c3ccc(C(C)C)ccc2-3)cc1` [Compound 22, 6-Isopropyl-3-[4-(4-methylbenzenesulfonylamino)butyl]-azulene-1-carboxylicacid], `CC(C)c1ccc2c(CCCCNS(=O)(=O)c3ccc(F)cc3)cc(C(=O)O)c-2cc1` [Compound 24, 6-Isopropyl-3-[4-(4-fluorobenzenesulfonylamino)butyl]-azulene-1-carboxylicacid] is 1.8-fold lower in IC50: 20 nM for the first, 11 nM for the second. The second is the more potent here.

Going from `COc1ccc(S(=O)(=O)NCCCCc2cc(C(=O)O)c3ccc(C(C)C)ccc2-3)cc1` [Compound 23, 6-Isopropyl-3-[4-(4-methoxybenzenesulfonylamino)butyl]-azulene-1-carboxylic acid] to `CC(C)c1ccc2c(CCCCNS(=O)(=O)c3ccc(Cl)cc3)cc(C(=O)O)c-2cc1` [Compound 25, 6-Isopropyl-3-[4-(4-chlorobenzenesulfonylamino)butyl]-azulene-1-carboxylicacid], the IC50 falls from 16 nM to 5.3 nM (3-fold). The second is the more potent here.

Going from `CC(C)c1ccc2c(CCCCNS(=O)(=O)c3ccc(Cl)c(Cl)c3)cc(C(=O)O)c-2cc1` [Compound 26, 6-Isopropyl-3-[4-(3,4-dichlorobenzenesulfonylamino)butyl]-azulene-1-carboxylic acid] to `CC(C)c1ccc2c(CCCCNS(=O)(=O)c3ccc(Cl)c(Cl)c3)cc(S(=O)(=O)O)c-2cc1` [Compound 49, 6-Isopropyl-3-[4-(3,4-dichlorobenzenesulfonylamino)butyl-azulene-1-sulfonic acid sodium salt], the IC50 falls from 43 nM to 15 nM (2.9-fold). The second is the more potent here.

`CC(C)c1ccc2c(CCCCNS(=O)(=O)c3ccc(Br)cc3)cc(C(=O)O)c-2cc1` [Compound 27, 6-Isopropyl-3-[4-(4-bromobenzenesulfonylamino)butyl]-azulene-1-carboxylic acid] and `CC(C)c1ccc2c(CCCCNS(=O)(=O)c3ccc(I)cc3)cc(C(=O)O)c-2cc1` [Compound 28, 6-Isopropyl-3-[4-(4-iodobenzenesulfonylamino)butyl]-azulene-1-carboxylic acid] are within 1.5-fold of each other in IC50: 5.3 nM for the first, 5.1 nM for the second.

`CC(C)c1ccc2c(CCCCNS(=O)(=O)c3ccc(C(F)(F)F)cc3)cc(C(=O)O)c-2cc1` [Compound 31, 6-Isopropyl-3-[4-(4-trifluoromethylbenzenesulfonylamino)butyl]-azulene-1-carboxylic acid] and `CC(C)c1ccc2c(CCCCNS(=O)(=O)c3ccc([N+](=O)[O-])cc3)cc(C(=O)O)c-2cc1` [Compound 32, 6-Isopropyl-3-[4-(4-nitrobenzenesulfonylamino)butyl]-azulene-1-carboxylic acid] are within 1.5-fold of each other in IC50: 12 nM for the first, 13 nM for the second.

Compared with `CC(C)c1ccc2c(CCCCN(C)S(=O)(=O)c3ccccc3)cc(C(=O)O)c-2cc1` [Compound 37, 6-Isopropyl-3-[4-(N-methylbenzenesulfonylamino)butyl]-azulene-1-carboxylicacid], `CC(C)c1ccc2c(CCC[C@H](C)NS(=O)(=O)c3ccccc3)cc(C(=O)O)c-2cc1` [Compound 62, 6-isopropyl-3-[(4S)-(benzenesulfonylamino)pentyl]-azulene-1-carboxylicacid] is 200-fold lower in IC50: 10000 nM for the first, 50 nM for the second.

First: CC(C)c1ccc2c(CCCCNC(=O)c3ccccc3)cc(C(=O)O)c-2cc1 [Compound 41, 6-Isopropyl-3-[4-(benzoylamino)butyl]-azulene-1-carboxylic acid]
Second: CC(C)c1ccc2c(CCC[C@@H](C)NS(=O)(=O)c3ccccc3)cc(C(=O)O)c-2cc1 [Compound 63, 6-isopropyl-3-[(4R)-(benzenesulfonylamino)pentyl]-azulene-1-carboxylicacid]
The IC50 of the first is 10-fold higher: 4400 nM for the first, 420 nM for the second. The second is the more potent here.

First: CC(C)c1ccc2c(CCCCNS(=O)(=O)c3ccc(F)cc3)cc(S(=O)(=O)O)c-2cc1 [Compound 47, 6-Isopropyl-3-[4-(P-fluorobenzenesulfonylamino)butyl]-azulene-1-sulfonic acid sodium salt]
Second: CC(C)c1ccc2c(CCCCNS(=O)(=O)c3ccc(Cl)cc3)cc(S(=O)(=O)O)c-2cc1 [Compound 48, 6-Isopropyl-3-[4-(P-chlorobenzenesulfonylamino)butyl]-azulene-1-sulfonic acid sodium salt]
The IC50 of the first is 2.6-fold higher: 4.4 nM for the first, 1.7 nM for the second. The second is the more potent here.

`CC(C)c1ccc2c(CCCCNS(=O)(=O)c3ccc(Br)cc3)cc(S(=O)(=O)O)c-2cc1` [Compound 50, 6-Isopropyl-3-[4-(P-bromobenzenesulfonylamino)butyl]-azulene-1-sulfonic ac id sodium salt] and `CC(C)c1ccc2c(CCCCNS(=O)(=O)c3ccc(I)cc3)cc(S(=O)(=O)O)c-2cc1` [Compound 51, 6-Isopropyl-3-[4-(P-iodobenzenesulfonylamino)butyl]-azulene-1-sulfonicacid sodium salt] are within 1.5-fold of each other in IC50: 1.7 nM for the first, 1.6 nM for the second.

Going from `CC(C)c1ccc2c(C(=O)O)cc([C@H](C)CCCNS(=O)(=O)c3ccccc3)c-2cc1` [Compound 54, 6-isopropyl-3-[(1R)-methyl-4-(benzenesulfonylamino)butyl]-azulene-1-carbolxylic acid] to `CC(C)c1ccc2c(C(=O)O)cc([C@@H](C)CCCNS(=O)(=O)c3ccccc3)c-2cc1` [Compound 55, 6-isopropyl-3-[(1S)-methyl-4-(benzenesulfonylamino)butyl]-azulene-1-carboxylic acid], the IC50 falls from 210 nM to 44 nM (4.8-fold).

Going from `CC(C)c1ccc2c(C[C@H](C)CCNS(=O)(=O)c3ccccc3)cc(C(=O)O)c-2cc1` [Compound 56, 6-isopropyl-3-[(2S)-methyl-4-(benzenesulfonylamino)butyl]-azulene-1-carboxylic acid] to `CC(C)c1ccc2c(C[C@@H](C)CCNS(=O)(=O)c3ccccc3)cc(C(=O)O)c-2cc1` [Compound 57, 6-isopropyl-3-[(2R)-methyl-4-(benzenesulfonylamino)butyl]-azulene-1-carboxylic acid], the IC50 falls from 160 nM to 36 nM (4.4-fold).

Going from `CC(C)c1ccc2c(CC[C@@H](C)CNS(=O)(=O)c3ccccc3)cc(C(=O)O)c-2cc1` [Compound 58, 6-isopropyl-3-[(3R)-methyl-4-(benzenesulfonylamino)butyl]-azulene-1-carboxylic acid] to `CC(C)c1ccc2c(CC[C@H](C)CNS(=O)(=O)c3ccccc3)cc(C(=O)O)c-2cc1` [Compound 59, 6-isopropyl-3-[(3S)-methyl-4-(benzenesulfonylamino)butyl]-azulene-1-carboxylic acid], the IC50 falls from 35 nM to 16 nM (2.2-fold).

Going from `CC(C)c1ccc2c(CC(C)(C)CCNS(=O)(=O)c3ccccc3)cc(C(=O)O)c-2cc1` [Compound 64, 6-isopropyl-3-[2,2-dimethyl-4-(benzenesulfonylamino)butyl]-azulene-1-carboxylic acid] to `CC(C)c1ccc2c(CCC(C)(C)CNS(=O)(=O)c3ccccc3)cc(C(=O)O)c-2cc1` [Compound 65, 6-isopropyl-3-[3,3-dimethyl-4-(benzenesulfonylamino)butyl]-azulene-1-carboxylic acid], the IC50 falls from 690 nM to 50 nM (14-fold). The second is the more potent here.
